Laboratory results as given in PubChem BioAssay (NCI).
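48-hour exposure; five concentrations; linearly interpolated endpoints. TGI denotes the concentration required for complete inhibition of growth.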

What was measured:
Assay in all cases: DTP human tumour cell line panel, 48 h
[1] = system: 786-0 renal
[2] = system: A498 renal
[3] = system: A549 NSCLC
[4] = system: ACHN renal
[5] = system: BT-549 breast
[6] = system: CAKI-1 renal
[7] = system: CCRF-CEM leukemia
[8] = system: COLO 205 colon
[9] = system: DU-145 prostate
[10] = system: EKVX NSCLC
[11] = system: HCC-2998 colon
[12] = system: HCT-116 colon
[13] = system: HCT-15 colon
[14] = system: HL-60(TB) leukemia
[15] = system: HOP-62 NSCLC
[16] = system: HS 578T breast
[17] = system: HT29 colon
[18] = system: IGROV1 ovarian
[19] = system: K-562 leukemia
[20] = system: KM12 colon
[21] = system: LOX IMVI melanoma
[22] = system: M14 melanoma
[23] = system: MALME-3M melanoma
[24] = system: MCF7 breast
[25] = system: MDA-MB-231 breast
[26] = system: MDA-MB-435
[27] = system: MDA-N
[28] = system: MOLT-4 leukemia
[29] = system: NCI-H226 lung
[30] = system: NCI-H23 lung
[31] = system: NCI-H522 lung
[32] = system: NCI/ADR-RES ovarian
[33] = system: OVCAR-3 ovarian
[34] = system: OVCAR-4 ovarian
[35] = system: OVCAR-5 ovarian
[36] = system: OVCAR-8 ovarian
[37] = system: PC-3 prostate
[38] = system: RPMI-8226 leukemia
[39] = system: RXF 393 renal
[40] = system: SF-268 CNS
[41] = system: SF-295 CNS
[42] = system: SF-539 CNS
[43] = system: SK-MEL-2 melanoma
[44] = system: SK-MEL-5 melanoma
[45] = system: SK-OV-3 ovarian
[46] = system: SN12C renal
[47] = system: SNB-19 CNS
[48] = system: SNB-75 CNS
[49] = system: SR leukemia
[50] = system: SW-620 colon
[51] = system: T-47D breast
[52] = system: TK-10 renal
[53] = system: U251 CNS
[54] = system: UACC-257 melanoma
[55] = system: UACC-62 melanoma
[56] = system: UO-31 renal
[57] = system: DLD-1 colon
[58] = system: DMS 273 small cell lung
[59] = system: HOP-18 NSCLC
[60] = system: HOP-92 NSCLC
[61] = system: KM20L2 colon
[62] = system: LXFL 529 NSCLC
[63] = system: M19-MEL melanoma
[64] = system: NCI-H460 lung
[65] = system: SNB-78 CNS
[66] = system: SK-MEL-28 melanoma
[67] = system: DMS 114 small cell lung
[68] = system: XF 498 CNS

## CC1OC(n2cc(F)c(=O)[nH]c2=O)C(O[Si](C)(C)C(C)(C)C)C1O[Si](C)(C)C(C)(C)C (configuration not stated)
[1]
  TGI: 27.7 µM
[2]
  TGI: 27.3 µM
[3]
  TGI: 54.2 µM
[4]
  TGI: 26.9 µM
[5]
  TGI: 26.1 µM
[6]
  TGI: 28.9 µM
[7]
  TGI: > 100 µM
[8]
  TGI: 27.4 µM
[9]
  TGI: 26.8 µM
[10]
  TGI: 31.6 µM
[11]
  TGI: 28.2 µM
[12]
  TGI: 26.8 µM
[13]
  TGI: 25.6 µM
[14]
  TGI: 45.1 µM
[15]
  TGI: 43.7 µM
[16]
  TGI: 40.7 µM
[17]
  TGI: 23.3 µM
[18]
  TGI: 27.3 µM
[19]
  TGI: 36.1 µM
[20]
  TGI: 26.1 µM
[21]
  TGI: 42 µM
[22]
  TGI: 45 µM
[23]
  TGI: 28.5 µM
[24]
  TGI: 35.7 µM
[25]
  TGI: 31.6 µM
[26]
  TGI: 34.5 µM
[27]
  TGI: 29.3 µM
[28]
  TGI: > 100 µM
[29]
  TGI: 31.1 µM
[30]
  TGI: 23 µM
[31]
  TGI: 16.8 µM
[32]
  TGI: 27.7 µM
[33]
  TGI: 37.3 µM
[34]
  TGI: 16.8 µM
[35]
  TGI: 31.1 µM
[36]
  TGI: 28.9 µM
[37]
  TGI: 27.3 µM
[38]
  TGI: 35.4 µM
[39]
  TGI: 29.5 µM
[40]
  TGI: 29.8 µM
[41]
  TGI: 27.1 µM
[42]
  TGI: 28.7 µM
[43]
  TGI: 35.5 µM
[44]
  TGI: 28.2 µM
[45]
  TGI: 32 µM
[46]
  TGI: 24.9 µM
[47]
  TGI: 30.1 µM
[48]
  TGI: 31.3 µM
[49]
  TGI: > 100 µM
[50]
  TGI: 28.6 µM
[51]
  TGI: 27.1 µM
[52]
  TGI: 22.9 µM
[53]
  TGI: 26.9 µM
[54]
  TGI: 33.2 µM
[55]
  TGI: 28.6 µM
[56]
  TGI: 25.4 µM

## CCOC(=O)Cc1nc(/C(C#N)=C/c2ccco2)[nH]c(=O)c1C#N
[1]
  TGI: > 100 µM
[3]
  TGI: > 100 µM
[4]
  TGI: > 100 µM
[6]
  TGI: > 100 µM
[7]
  TGI: > 100 µM
[8]
  TGI: > 100 µM
[57]
  TGI: > 100 µM
[58]
  TGI: > 100 µM
[10]
  TGI: > 100 µM
[11]
  TGI: > 100 µM
[12]
  TGI: > 100 µM
[13]
  TGI: > 100 µM
[14]
  TGI: > 100 µM
[59]
  TGI: > 100 µM
[15]
  TGI: > 100 µM
[60]
  TGI: > 100 µM
[17]
  TGI: > 100 µM
[18]
  TGI: > 100 µM
[19]
  TGI: > 100 µM
[20]
  TGI: > 100 µM
[61]
  TGI: > 100 µM
[21]
  TGI: > 100 µM
[62]
  TGI: > 100 µM
[22]
  TGI: > 100 µM
[63]
  TGI: > 100 µM
[28]
  TGI: > 100 µM
[29]
  TGI: > 100 µM
[30]
  TGI: > 100 µM
[64]
  TGI: > 100 µM
[31]
  TGI: > 100 µM
[33]
  TGI: > 100 µM
[34]
  TGI: > 100 µM
[35]
  TGI: > 100 µM
[36]
  TGI: > 100 µM
[38]
  TGI: > 100 µM
[39]
  TGI: > 100 µM
[41]
  TGI: > 100 µM
[42]
  TGI: > 100 µM
[43]
  TGI: > 100 µM
[44]
  TGI: > 100 µM
[45]
  TGI: > 100 µM
[46]
  TGI: > 100 µM
[47]
  TGI: > 100 µM
[48]
  TGI: > 100 µM
[65]
  TGI: 93.9 µM
[49]
  TGI: > 100 µM
[50]
  TGI: > 100 µM
[52]
  TGI: > 100 µM
[53]
  TGI: > 100 µM
[54]
  TGI: > 100 µM
[55]
  TGI: > 100 µM
[56]
  TGI: > 100 µM

## COP(=O)(CC(=O)C1OC(OCc2ccccc2)C(OCc2ccccc2)C(OCc2ccccc2)C1OCc1ccccc1)OC (configuration not stated)
[1]
  TGI: > 100 µM
[3]
  TGI: > 100 µM
[4]
  TGI: 23.2 µM
[5]
  TGI: 71.2 µM
[6]
  TGI: 19.5 µM
[7]
  TGI: > 100 µM
[8]
  TGI: 15 µM
[9]
  TGI: > 100 µM
[10]
  TGI: 50.4 µM
[11]
  TGI: 19.2 µM
[12]
  TGI: > 100 µM
[13]
  TGI: > 100 µM
[14]
  TGI: 23.7 µM
[15]
  TGI: > 100 µM
[60]
  TGI: 85.7 µM
[16]
  TGI: > 100 µM
[17]
  TGI: 24.2 µM
[18]
  TGI: > 100 µM
[19]
  TGI: > 100 µM
[20]
  TGI: 37.6 µM
[21]
  TGI: 32.3 µM
[22]
  TGI: 70 µM
[23]
  TGI: 94.5 µM
[24]
  TGI: 37.4 µM
[25]
  TGI: 61.1 µM
[26]
  TGI: 27.9 µM
[27]
  TGI: 20.3 µM
[28]
  TGI: > 100 µM
[29]
  TGI: 54 µM
[30]
  TGI: > 100 µM
[64]
  TGI: 38.4 µM
[31]
  TGI: > 100 µM
[32]
  TGI: 90.2 µM
[33]
  TGI: > 100 µM
[34]
  TGI: 8.89 µM
[35]
  TGI: > 100 µM
[36]
  TGI: > 100 µM
[37]
  TGI: > 100 µM
[39]
  TGI: 19.4 µM
[40]
  TGI: > 100 µM
[41]
  TGI: > 100 µM
[42]
  TGI: 40.7 µM
[43]
  TGI: 11 µM
[66]
  TGI: > 100 µM
[44]
  TGI: 16.8 µM
[45]
  TGI: > 100 µM
[46]
  TGI: 11.2 µM
[47]
  TGI: > 100 µM
[48]
  TGI: 92.3 µM
[49]
  TGI: 21.4 µM
[50]
  TGI: > 100 µM
[51]
  TGI: 41.9 µM
[52]
  TGI: 79.8 µM
[53]
  TGI: > 100 µM
[54]
  TGI: 43.9 µM
[55]
  TGI: 17.8 µM
[56]
  TGI: 7.1 µM

## O=C1CCn2c([nH]c3cccc4cccc2c43)=N1
[1]
  TGI: > 100 µM
[3]
  TGI: > 100 µM
[4]
  TGI: > 100 µM
[7]
  TGI: > 100 µM
[8]
  TGI: > 100 µM
[67]
  TGI: > 100 µM
[58]
  TGI: > 100 µM
[10]
  TGI: > 100 µM
[11]
  TGI: > 100 µM
[12]
  TGI: > 100 µM
[13]
  TGI: > 100 µM
[14]
  TGI: > 100 µM
[15]
  TGI: > 100 µM
[17]
  TGI: > 100 µM
[18]
  TGI: > 100 µM
[19]
  TGI: > 100 µM
[61]
  TGI: > 100 µM
[21]
  TGI: > 100 µM
[62]
  TGI: > 100 µM
[22]
  TGI: > 100 µM
[63]
  TGI: > 100 µM
[28]
  TGI: > 100 µM
[29]
  TGI: > 100 µM
[30]
  TGI: > 100 µM
[64]
  TGI: > 100 µM
[34]
  TGI: > 100 µM
[35]
  TGI: > 100 µM
[36]
  TGI: > 100 µM
[38]
  TGI: > 100 µM
[39]
  TGI: > 100 µM
[40]
  TGI: > 100 µM
[42]
  TGI: > 100 µM
[66]
  TGI: > 100 µM
[44]
  TGI: > 100 µM
[45]
  TGI: > 100 µM
[46]
  TGI: > 100 µM
[47]
  TGI: > 100 µM
[48]
  TGI: > 100 µM
[65]
  TGI: > 100 µM
[49]
  TGI: > 100 µM
[50]
  TGI: > 100 µM
[52]
  TGI: > 100 µM
[53]
  TGI: > 100 µM
[54]
  TGI: > 100 µM
[55]
  TGI: > 100 µM
[56]
  TGI: > 100 µM
[68]
  TGI: > 100 µM
